Marks after values point to notes of the source that are not given here.
Assays:
ICAM-1 = assay: Cell migration across ICAM-1 membrane toward SDF-1; format: cell-based; conditions: FIG. 5; different concentrations; SDF-1 in bottom part
Description: (§1) Referring now to FIG. 5, an apparatus for testing VCAM-1 and ICAM-1 cell migration, where the cells are initially placed in the top part of the apparatus including a member including VCAM-1 or ICAM-1, with the bottom part of the apparatus initially including SDF-1. Cell migration is then measured from top part to the bottom part for different concentration of CDPD 1, a compound of Formula (I) of VCAM-1 and ICAM-1 impregnated membrane.

[1] = tested on: CT26 colon cancer syngeneic tumor; assay: Study 1: CT26 syngeneic tumor model in Balb/c mice; format: in vivo, Mouse (Mus musculus)
Description: (§2) Mouse colon carcinoma CT26 cells were obtained from American Type Culture Collection (ATCC), USA. Cells were grown in RPMI-1640 medium (Sigma, Cat # R6504) supplemented with 10% FBS (Invitrogen, Cat #10438-026), and 1% penicillin streptomycin (Thermo Fisher Scientific, Cat #15140-122). To establish allografts, 1 million CT26 cells were suspended in 50 μL of serum-free medium and mixed at 1:1 ratio with matrigel before implanting subcutaneously into the right flank of mice.
(§3) Prior to inoculation, the skin on the injection site was swabbed with alcohol. To establish allografts, CT26 cells were suspended in serum free medium at a concentration of (1×10^6)/50 μL, mixed with equal volume of matrigel (1:1 ratio) and 100 μL of this mixture was injected to each mouse by subcutaneous implantation using a 1 mL BD syringe attached to a 24 gauge needle.
(§4) CT26 tumor xenografts were measured after approximately 1 week of cell inoculation when they become palpable. When the average tumor volume reaches around 110 mm^3, animals were randomized into treatment groups group maintaining the average tumor volume of each group similar across groups for Study 1 and Study 2. In Study 3, the animals were randomized on the basis of body weights +1 day post cell implantation.
(§5) Tumor dimensions (length and breadth) were measured on days 0 (animal randomization based on tumor volume) and thrice weekly thereafter until study termination. Tumor volumes were calculated using the formula (b^2*l)*0.52 where l=length, b=breadth (Dusan Djokovic et al., BMC Cancer, 2010, 10:641). Tumor growth inhibition was calculated after normalizing the tumor volume on a given day to that on day 1.
(§6) Mean body weight loss and percent changes were calculated for each group. Similarly, mean tumor volume and percent tumor growth inhibition were calculated. The percent tumor growth inhibition (% TGI) as a function of anti-tumor efficacy were computed with respect to untreated vehicle control by comparing to the tumor volumes of day 1 using formula described below: % TGI=[1−(Treatment TVFinal−Treatment TVInitial)/(Control TVFinal−Control TVInitial)]*100
The test agent, Compound 1 was evaluated in CT26 syngeneic tumor model in Balb/c mice. Compound 1 was administered in mice when the starting tumor volume reached 109±7.1 mm^3 eight days after implantation of CT26 cells.

VLA-4/VCAM-1 = VLA-4/VCAM-1 (Homo sapiens, UniProt P05556+P13612); assay: VLA-4 (α4β1) dependent cell adhesion to VCAM-1; format: cell-based; conditions: FIG. 3; VCAM-1 and Cmpd 1 versus BSA, VCAM-1 alone, Ig and anti-integrin antibodies
Description: Referring now to FIG. 3, a histogram is shown of induced VLA-4 (α4β1) dependent cell adhesion to VCAM-1 in the presence of BSA, VCAM-1, VCAM-1 and a compound of Formula (I) (Cmpd 1), Ig, anti-α4, anti-αL, anti-β1, and anti-β2.
(§7) Activating all integrins is necessary for firm endothelial cell adhesion for extravasation.

VCAM-1 = assay: Cell migration across VCAM-1 membrane toward SDF-1; format: cell-based; conditions: FIG. 5; different concentrations; SDF-1 in bottom part
Description: as §1

[2] = tested on: CT26 colon cancer syngeneic tumor; assay: Study 2: CT26 syngeneic tumor model in Balb/c mice; format: in vivo, Mouse (Mus musculus); conditions: for % Tumor Growth Inhibition: 1 mg/kg IP QD at 4 h; for Average Tumor Volume, Mean: 1 mg/kg IP QD
Description: as §2, §3, §4, §5, §6
The test agent, Compound 1 was evaluated in CT26 syngeneic tumor model in Balb/c mice. Compound 1 was administered in mice when the starting tumor volume reached 110±6.9 mm^3 seven days after implantation of CT26 cells.

[3] = Clinical symptoms in monkeys; format: in vivo
aiibb3/Fibrinogen = aiibb3/Fibrinogen (Homo sapiens, UniProt P05106+P08514); assay: Integrin activation, adhesion aiibb3/Fibrinogen; format: cell-based; parameters: key: Not Active: Not active: ≤2 fold increase in adhesion; conditions: 50% serum; n = 3
Description: as §7

LFA-1/ICAM-1 = LFA-1/ICAM-1 (Homo sapiens, UniProt P05107+P20701); assay: LFA-1 dependent cell adhesion to ICAM-1; format: cell-based; conditions: FIG. 4; ICAM-1 and Cmpd 1 versus BSA, ICAM-1 alone, Ig and anti-integrin antibodies
Description: Referring now to FIG. 4, a histogram is shown of induced LFA-1 ([…]) dependent cell adhesion to ICAM-1 in the presence of BSA, ICAM-1, ICAM-1 and a compound of Formula (I) (Cmpd 1), Ig, anti-α4, anti-αL, anti-β1, and anti-β2.
as §7

α5β1/Fibronectin = α5β1/Fibronectin (Homo sapiens, UniProt P05556+P08648); assay: Integrin activation, adhesion α5β1/Fibronectin; format: cell-based; conditions: 50% serum; n = 3; read-out: Integrin Selectivity EC50 α5β1/Fibronectin
Description: as §7

α2b1/Collagen I = α2b1/Collagen I (Homo sapiens, UniProt P05556+P17301); assay: Integrin activation, adhesion α2b1/Collagen I; format: cell-based; parameters: key: Not Active: Not active: ≤2 fold increase in adhesion; conditions: 50% serum; n = 3
Description: as §7

Sequence of α5β1/Fibronectin (P08648 42-894 limits assumed): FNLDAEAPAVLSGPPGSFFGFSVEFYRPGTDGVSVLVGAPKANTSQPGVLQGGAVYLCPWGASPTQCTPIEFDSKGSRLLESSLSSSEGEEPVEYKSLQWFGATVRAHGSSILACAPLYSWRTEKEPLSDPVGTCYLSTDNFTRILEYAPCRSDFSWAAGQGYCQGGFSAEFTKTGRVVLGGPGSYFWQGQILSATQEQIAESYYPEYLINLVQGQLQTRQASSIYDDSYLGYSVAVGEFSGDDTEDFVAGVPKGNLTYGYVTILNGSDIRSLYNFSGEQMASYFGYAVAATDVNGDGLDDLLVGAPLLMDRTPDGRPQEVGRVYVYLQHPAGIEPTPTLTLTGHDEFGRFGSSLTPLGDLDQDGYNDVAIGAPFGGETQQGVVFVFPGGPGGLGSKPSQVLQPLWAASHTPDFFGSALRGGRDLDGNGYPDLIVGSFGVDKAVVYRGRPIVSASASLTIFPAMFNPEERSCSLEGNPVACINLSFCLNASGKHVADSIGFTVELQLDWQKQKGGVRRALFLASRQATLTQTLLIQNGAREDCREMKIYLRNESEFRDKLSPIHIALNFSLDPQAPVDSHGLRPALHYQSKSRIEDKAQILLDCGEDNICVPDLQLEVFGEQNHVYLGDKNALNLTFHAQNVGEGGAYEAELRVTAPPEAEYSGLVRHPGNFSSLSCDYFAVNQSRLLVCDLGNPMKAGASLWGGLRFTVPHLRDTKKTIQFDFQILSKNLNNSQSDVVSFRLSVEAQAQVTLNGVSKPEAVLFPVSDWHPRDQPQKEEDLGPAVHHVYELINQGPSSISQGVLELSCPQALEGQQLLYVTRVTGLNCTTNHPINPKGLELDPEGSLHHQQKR
Sequence of α5β1/Fibronectin (P08648 895-1049 limits assumed): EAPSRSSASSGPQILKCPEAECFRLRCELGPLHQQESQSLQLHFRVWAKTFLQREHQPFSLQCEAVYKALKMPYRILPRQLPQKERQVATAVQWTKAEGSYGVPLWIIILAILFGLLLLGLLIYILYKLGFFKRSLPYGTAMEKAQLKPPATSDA
Sequence of α5β1/Fibronectin (P05556 21-798): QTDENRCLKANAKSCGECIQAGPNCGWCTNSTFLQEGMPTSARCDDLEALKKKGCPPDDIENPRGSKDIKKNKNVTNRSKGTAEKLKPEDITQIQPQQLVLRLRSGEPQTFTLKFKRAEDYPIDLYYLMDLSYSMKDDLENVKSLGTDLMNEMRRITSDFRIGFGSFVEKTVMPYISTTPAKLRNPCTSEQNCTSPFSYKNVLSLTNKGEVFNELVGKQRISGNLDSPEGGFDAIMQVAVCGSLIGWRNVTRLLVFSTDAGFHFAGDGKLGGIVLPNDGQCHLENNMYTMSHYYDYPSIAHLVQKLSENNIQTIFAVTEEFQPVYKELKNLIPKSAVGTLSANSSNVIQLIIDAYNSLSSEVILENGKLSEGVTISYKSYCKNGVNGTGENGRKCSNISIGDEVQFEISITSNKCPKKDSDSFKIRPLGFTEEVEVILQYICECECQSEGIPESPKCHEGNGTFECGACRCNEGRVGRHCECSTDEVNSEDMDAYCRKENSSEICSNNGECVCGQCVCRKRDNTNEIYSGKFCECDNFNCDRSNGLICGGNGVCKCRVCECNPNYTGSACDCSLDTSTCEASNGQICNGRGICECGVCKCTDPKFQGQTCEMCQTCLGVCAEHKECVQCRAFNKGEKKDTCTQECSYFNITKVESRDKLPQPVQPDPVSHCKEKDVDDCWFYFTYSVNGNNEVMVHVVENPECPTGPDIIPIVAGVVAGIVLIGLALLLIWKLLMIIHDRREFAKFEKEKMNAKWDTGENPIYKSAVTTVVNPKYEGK
Sequence of LFA-1/ICAM-1 (P20701 26-1170): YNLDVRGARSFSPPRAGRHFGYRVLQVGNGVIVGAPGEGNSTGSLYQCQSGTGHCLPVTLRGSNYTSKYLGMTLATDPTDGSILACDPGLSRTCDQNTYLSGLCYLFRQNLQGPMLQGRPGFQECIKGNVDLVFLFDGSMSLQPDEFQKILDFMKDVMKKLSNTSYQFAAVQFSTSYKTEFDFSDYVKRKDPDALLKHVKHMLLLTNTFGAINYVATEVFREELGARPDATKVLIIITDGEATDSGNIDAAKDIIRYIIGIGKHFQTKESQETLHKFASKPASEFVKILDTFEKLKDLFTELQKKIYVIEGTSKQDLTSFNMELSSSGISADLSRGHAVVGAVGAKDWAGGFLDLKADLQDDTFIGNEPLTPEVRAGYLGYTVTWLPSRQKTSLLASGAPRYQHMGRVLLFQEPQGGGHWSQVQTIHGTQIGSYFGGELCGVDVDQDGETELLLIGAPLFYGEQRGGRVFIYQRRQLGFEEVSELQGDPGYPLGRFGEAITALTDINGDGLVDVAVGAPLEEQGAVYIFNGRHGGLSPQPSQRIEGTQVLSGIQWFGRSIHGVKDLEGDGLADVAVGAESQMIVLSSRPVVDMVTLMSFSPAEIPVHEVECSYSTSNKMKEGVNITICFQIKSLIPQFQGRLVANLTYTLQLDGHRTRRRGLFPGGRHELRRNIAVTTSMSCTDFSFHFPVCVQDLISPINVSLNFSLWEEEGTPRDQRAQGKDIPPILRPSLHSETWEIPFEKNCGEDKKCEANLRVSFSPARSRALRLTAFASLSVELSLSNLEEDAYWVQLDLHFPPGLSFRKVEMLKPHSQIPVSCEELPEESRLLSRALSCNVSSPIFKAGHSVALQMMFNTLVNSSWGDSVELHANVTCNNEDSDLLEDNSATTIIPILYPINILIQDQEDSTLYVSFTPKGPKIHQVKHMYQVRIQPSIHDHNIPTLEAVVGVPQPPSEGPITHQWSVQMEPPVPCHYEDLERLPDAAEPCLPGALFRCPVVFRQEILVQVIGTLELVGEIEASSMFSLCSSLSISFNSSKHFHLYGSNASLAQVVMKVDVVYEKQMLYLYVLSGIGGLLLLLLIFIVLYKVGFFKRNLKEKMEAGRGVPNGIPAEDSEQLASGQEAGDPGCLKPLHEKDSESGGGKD
Sequence of LFA-1/ICAM-1 (P05107 23-769): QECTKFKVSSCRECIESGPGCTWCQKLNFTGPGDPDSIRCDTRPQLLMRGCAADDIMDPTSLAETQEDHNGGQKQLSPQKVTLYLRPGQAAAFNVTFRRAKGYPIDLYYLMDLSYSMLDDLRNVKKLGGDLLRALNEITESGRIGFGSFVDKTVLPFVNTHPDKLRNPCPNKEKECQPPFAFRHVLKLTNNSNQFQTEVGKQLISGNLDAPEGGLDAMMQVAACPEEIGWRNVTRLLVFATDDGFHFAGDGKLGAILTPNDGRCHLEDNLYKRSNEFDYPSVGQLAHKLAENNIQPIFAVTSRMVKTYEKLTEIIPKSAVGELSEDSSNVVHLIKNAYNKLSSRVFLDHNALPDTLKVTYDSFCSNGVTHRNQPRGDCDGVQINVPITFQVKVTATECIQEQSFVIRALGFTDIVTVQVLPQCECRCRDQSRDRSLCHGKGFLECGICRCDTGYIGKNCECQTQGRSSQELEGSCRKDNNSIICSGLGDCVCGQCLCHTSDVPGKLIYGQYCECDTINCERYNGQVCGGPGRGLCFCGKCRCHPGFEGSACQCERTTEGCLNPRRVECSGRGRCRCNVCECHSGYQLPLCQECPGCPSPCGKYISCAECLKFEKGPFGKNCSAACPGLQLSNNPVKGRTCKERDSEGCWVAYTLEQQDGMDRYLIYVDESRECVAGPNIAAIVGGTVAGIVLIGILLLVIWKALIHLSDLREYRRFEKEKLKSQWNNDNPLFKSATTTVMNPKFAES
Sequence of VLA-4/VCAM-1 (P13612 34-1032): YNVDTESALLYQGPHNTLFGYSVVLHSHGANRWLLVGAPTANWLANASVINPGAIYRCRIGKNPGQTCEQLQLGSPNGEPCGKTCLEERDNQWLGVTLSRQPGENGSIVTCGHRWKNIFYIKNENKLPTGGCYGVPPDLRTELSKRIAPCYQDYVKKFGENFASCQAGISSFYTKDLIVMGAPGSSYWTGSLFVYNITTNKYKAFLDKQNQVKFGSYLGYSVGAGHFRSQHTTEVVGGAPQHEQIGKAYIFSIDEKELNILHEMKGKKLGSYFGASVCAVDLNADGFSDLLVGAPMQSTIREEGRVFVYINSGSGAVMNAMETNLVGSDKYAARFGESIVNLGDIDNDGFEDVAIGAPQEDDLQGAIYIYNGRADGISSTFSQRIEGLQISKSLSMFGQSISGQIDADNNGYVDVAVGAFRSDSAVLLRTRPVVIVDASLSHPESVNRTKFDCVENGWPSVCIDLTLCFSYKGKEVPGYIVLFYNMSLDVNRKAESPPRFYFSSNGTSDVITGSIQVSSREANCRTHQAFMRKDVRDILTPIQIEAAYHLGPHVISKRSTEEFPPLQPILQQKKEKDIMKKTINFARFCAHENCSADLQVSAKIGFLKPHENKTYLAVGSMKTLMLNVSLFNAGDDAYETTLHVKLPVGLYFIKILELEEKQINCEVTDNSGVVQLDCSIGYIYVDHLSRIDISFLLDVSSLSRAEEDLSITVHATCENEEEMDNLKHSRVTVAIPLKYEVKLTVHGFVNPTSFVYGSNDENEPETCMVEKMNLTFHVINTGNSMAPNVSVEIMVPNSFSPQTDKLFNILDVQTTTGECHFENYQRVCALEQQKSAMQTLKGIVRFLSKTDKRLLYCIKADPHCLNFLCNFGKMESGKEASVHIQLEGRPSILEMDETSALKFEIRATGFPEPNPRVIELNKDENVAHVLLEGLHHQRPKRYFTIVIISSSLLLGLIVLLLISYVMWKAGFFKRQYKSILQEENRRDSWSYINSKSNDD
Sequence of VLA-4/VCAM-1 (P05556 21-798): as the sequence (P05556 21-798) above

## O=C(OCCOCCOCCOC(=O)N(Cc1cccs1)Cc1cccs1)N(Cc1cccs1)Cc1cccs1 [Compound 1, 3-oxo-1-(2-thienyl)-2-(2-thienylmethyl)-4,7,10-trioxa-2-azadodecan-12-yl bis(2-thienylmethyl)carbamate]
ICAM-1
  cell migration, ICAM-1: migration enhancement
[1]; Study 1, 1 mg/kg IP QD at 4 h, Day 4
  % Tumor Growth Inhibition: 36.1%
[1]; Study 1, 1 mg/kg IP QD at 4 h, Day 6
  % Tumor Growth Inhibition: 41.4%
[1]; Study 1, 1 mg/kg IP QD at 4 h, Day 8
  % Tumor Growth Inhibition: 61.5%
[1]; Study 1, 1 mg/kg IP QD at 4 h, Day 11
  % Tumor Growth Inhibition: 64.4%
[1]; Study 1, 1 mg/kg IP QD at 4 h, Day 13
  % Tumor Growth Inhibition: 55.4%
[1]; Study 1, 20 mg/kg PO QD at 4 h, Day 4
  % Tumor Growth Inhibition: −6.1%
[1]; Study 1, 20 mg/kg PO QD at 4 h, Day 6
  % Tumor Growth Inhibition: 16.5%
[1]; Study 1, 20 mg/kg PO QD at 4 h, Day 8
  % Tumor Growth Inhibition: 38.2%
[1]; Study 1, 20 mg/kg PO QD at 4 h, Day 11
  % Tumor Growth Inhibition: 42.2%
[1]; Study 1, 20 mg/kg PO QD at 4 h, Day 13
  % Tumor Growth Inhibition: 36.2%
[1]; Study 1, oral (20 mg/kg QD) and intraperitoneal (1 mg/kg QD) routes
  tolerability in term of body weights of animals: well tolerated
[1]; single agent, orally or intraperitoneally once daily for up to 30 days
  growth of established CT26 tumors: delayed the growth
VLA-4/VCAM-1
  bound cells, adhesion to VCAM-1: highest bound cells
VCAM-1
  cell migration, VCAM-1: migration enhancement
[2]; Day 2
  % Tumor Growth Inhibition: −6.6%
  Average Tumor Volume, Mean: 171 mm^3
[2]; Day 4
  % Tumor Growth Inhibition: 33.0%
  Average Tumor Volume, Mean: 244 mm^3
[2]; Day 6
  % Tumor Growth Inhibition: 38.9%
  Average Tumor Volume, Mean: 343 mm^3
[2]; Day 8
  % Tumor Growth Inhibition: 31.6%
  Average Tumor Volume, Mean: 545 mm^3
[2]; Day 10
  % Tumor Growth Inhibition: 33.5%
  Average Tumor Volume, Mean: 744* mm^3
[2]; Day 13
  % Tumor Growth Inhibition: 46.0%
  Average Tumor Volume, Mean: 1038^‡ mm^3
[2]; Day 1
  Average Tumor Volume, Mean: 111 mm^3
[3]
  exposure up to which no clinical symptoms: ~50 times therapeutic exposure
  exposure with no adverse clinical symptoms: > 50 times therapeutic exposure
aiibb3/Fibrinogen
  Integrin Selectivity EC50 aiibb3/Fibrinogen: Not Active
LFA-1/ICAM-1
  bound cells, adhesion to ICAM-1: highest bound cells
α5β1/Fibronectin
  EC50: 7.7 ± 2.3 µM
α2b1/Collagen I
  Integrin Selectivity EC50 α2b1/Collagen I: Not Active

— patent US12636274B2, “Pharmaceutical compositions and methods for systemic treatment of solid tumors” (7 HILLS INTERESTS LLC, priority 2014, dated 2026)
